# Test results from PubChem BioAssay (NCI).
#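 Cultured in 96-well plates, cells were exposed to test compound for 48 hours across five concentrations. At the GI50, growth is halved. TGI marks complete inhibition of growth.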
# Tests used:
# Assay in all cases: NCI tumour cell line growth inhibition, 48 h
# A549 NSCLC = test system: A549 NSCLC
# NCI-H522 lung = test system: NCI-H522 lung
# MDA-MB-435 = test system: MDA-MB-435
# HCT-116 colon = test system: HCT-116 colon
# SW-620 colon = test system: SW-620 colon
# SK-MEL-2 melanoma = test system: SK-MEL-2 melanoma
# SR leukemia = test system: SR leukemia
# DU-145 prostate = test system: DU-145 prostate
# UACC-62 melanoma = test system: UACC-62 melanoma
# K-562 leukemia = test system: K-562 leukemia
Structure (SMILES),GI50 (A549 NSCLC) [µM],TGI (A549 NSCLC) [µM],GI50 (NCI-H522 lung) [µM],TGI (NCI-H522 lung) [µM],GI50 (MDA-MB-435) [µM],TGI (MDA-MB-435) [µM],GI50 (HCT-116 colon) [µM],TGI (HCT-116 colon) [µM],GI50 (SW-620 colon) [µM],TGI (SW-620 colon) [µM],GI50 (SK-MEL-2 melanoma) [µM],TGI (SK-MEL-2 melanoma) [µM],GI50 (SR leukemia) [µM],TGI (SR leukemia) [µM],GI50 (DU-145 prostate) [µM],TGI (DU-145 prostate) [µM],GI50 (UACC-62 melanoma) [µM],TGI (UACC-62 melanoma) [µM],TGI (K-562 leukemia) [µM],GI50 (K-562 leukemia) [µM]
COc1cc(-c2nn(-c3cccc(NC(=O)CCN4CCN(Cc5ccccc5)CC4)c3)cc2-c2ccncc2)ccc1Cl,1.72,11.6,0.359,1.75,0.237,0.737,0.406,1.75,0.49,1.93,1.39,4.14,0.393,2.48,1.56,10.9,1.13,2.7,–,–
Nc1nc(N)c(CCCCc2ccccc2)c(N)n1,–,> 100,–,> 100,–,> 100,–,> 100,–,> 100,–,> 100,–,> 100,–,> 100,–,> 100,> 100,–
N/C(=N\OC(=O)c1ccccc1)C(Cc1ccccc1)C(=O)NOC(=O)c1ccccc1 (stereo unspecified),1.52,3.22,1.7,3.47,1.76,3.9,1.66,3.38,3.02,13.8,2.16,4.17,1.08,3.68,1.58,3.07,2.49,7.53,3.42,1.05
COc1cc2c(cc1F)C(c1ccccc1Cl)=Nc1c(n[nH]c1C)N2,0.938,23.9,0.415,20.9,0.172,19.1,0.639,18.4,0.486,20,1.08,17.3,0.417,32.8,3.46,21,0.995,17.2,> 50.4,0.493
O=C1C(OCCOc2ccccc2)=C(OCCOc2ccccc2)C(=O)c2ccccc21,4.62,> 100,3.93,> 100,35.4,> 100,3.13,> 100,4.7,> 100,18.6,> 100,7.26,> 100,7.12,> 100,6.79,> 100,> 100,> 100
Fc1ccc(/C=N/n2c(-c3ccc(F)c(Cl)c3)n[nH]c2=S)cc1,21.4,46,23.3,52.2,57.7,> 100,16.3,29.9,30.2,> 100,38.7,> 100,12.9,27.9,41.5,> 100,22.8,49,36.6,19.3
Cc1[nH]c(-c2cc(N)ccc2Cl)c2c1C(=O)CCCC2,7.91,> 100,1.13,15.2,3.24,19.5,3.92,> 100,12.1,55.6,7.65,60.7,2.64,> 100,13.1,> 100,0.809,7.2,> 100,3.59
O=C(Nc1ccccc1OC(=O)c1ccccc1)c1ccccc1,16.5,> 100,11.2,77.9,24.5,> 100,3.69,> 100,4.25,> 100,51.1,> 100,3.12,> 100,23.1,88.7,64.8,> 100,> 100,3.22
COC(=O)c1cc(-c2ccc(OC)c(OC)c2)[nH]c1N/N=C/c1c(Cl)cccc1Cl,0.948,8.28,0.502,2.51,0.127,0.562,0.396,2.11,0.443,12.7,0.832,7.14,0.394,> 100,0.448,1.93,0.552,11.2,> 100,0.46
CCC(=O)Nc1ccc(N2C(=O)/C(=C/c3ccc(OC)cc3)N=C2c2ccccc2)cc1,6.27,27,48.5,> 50,20.5,> 50,2.41,8.9,1.38,> 50,> 50,> 50,1.4,> 50,10.4,> 50,3.67,17.7,> 50,5.57
Oc1cc(-n2cccn2)c(O)cc1-n1cccn1,–,> 100,–,26.8,–,31.8,–,> 64.1,–,42.9,–,> 100,–,73.3,–,> 69.5,–,71.3,39.3,–
CC(CO)(Nc1ccc([N+](=O)[O-])cc1[N+](=O)[O-])C(=O)O (stereo unspecified),–,> 100,–,39,–,44.9,–,> 100,–,33.4,–,55.4,–,24.8,–,48.9,–,> 100,38.6,–
Cc1[nH]nc(-c2ccon2)c1N=O,–,57.6,–,48.5,–,41,–,56.8,–,49.1,–,> 100,–,29.5,–,41.2,–,34.7,44.8,–
O=C1c2c(Br)sc(Br)c2[C@@H](NC(=O)C(F)(F)F)C1Br (stereo partly specified),–,32.7,–,5.07,–,5.27,–,2.76,–,> 21.9,–,27.5,–,5.3,–,18.3,–,14.6,4.17,–
COc1ccc2c(c1)C(=O)c1c-2c(OCCN(C)C)nc2ccccc12,1.33,4.54,1.87,4.75,2.58,10.1,0.768,10.8,0.823,3.26,12.2,25.7,0.998,6.76,2.91,9,3.9,15.7,10.3,1.6
Oc1c(-c2cc(C(F)(F)F)[nH]n2)cc(Cl)c(OCc2ccc(Cl)cc2)c1-c1ccc(Cl)c(C(F)(F)F)c1,1.24,6.39,0.167,1.72,1.06,4.11,0.159,0.705,0.298,4.15,0.36,2.35,0.256,2.99,1.15,6.39,0.355,1.42,6.81,0.126
Cc1ccc(C2C3Cc4ccccc4C3=NN2c2ccc(S(=O)(=O)/N=c3\scc(-c4ccccc4)n3-c3ccccc3)cc2)cc1 (stereo unspecified),19,60.1,22,66.8,17.6,37.7,18.6,> 100,15.7,31.6,21.9,52.6,11.1,24.5,24.7,81.9,14,27.7,32.6,14.9
COc1cc2cc(Oc3ccc(NC(=O)c4ccc(Cl)c(Cl)c4)cc3)c(C)nc2cc1OC,> 100,> 100,6.27,> 100,> 100,> 100,4.26,> 100,> 100,> 100,> 100,> 100,19.6,> 100,> 100,> 100,> 100,> 100,> 100,7.23
COc1ccc2c(-c3ccnc(Nc4cccc(OC(F)(F)F)c4)n3)cnn2n1,1.82,5.42,0.366,1.77,0.144,0.692,1.03,3.96,0.856,4.84,1.39,17.1,0.904,> 25,1.35,17.6,0.863,6.94,> 25,0.42
Nc1n[nH]c2ccc([C@@H]3Nc4cc5c(cc4[C@H]4C6CCC(C6)[C@@H]34)C(=O)NC5)cc12 (stereo partly specified),1.56,> 100,0.305,> 100,0.126,0.49,0.343,> 100,0.362,> 100,15,> 100,0.149,> 100,0.416,> 40.7,0.408,> 100,> 100,0.131
CCN1C(=O)N(CC)C2C1NN=c1s/c(=C\c3ccc(F)cc3)c(=O)n12 (stereo unspecified),0.347,> 100,0.0931,0.903,0.0317,0.121,0.211,> 100,0.14,> 100,0.425,> 100,0.0474,> 37.3,0.3,> 37.8,0.111,> 100,> 100,0.0566
C[C@@H]1Cc2cc(O)ccc2[C@H]2CC[C@]3(C)/C(=C/COCCN(C)C)CC[C@H]3[C@H]12 (tested in a mixture with another compound),0.0557,0.193,0.131,0.735,0.268,0.875,0.245,0.78,0.214,0.482,0.323,0.845,0.212,0.55,0.142,0.276,0.25,0.625,0.985,0.256
C=CCc1cc(Nc2c3ccc(Cl)cc3nc3ccc(OC)cc23)cc(CN(CC)CC)c1O,3.26,13.9,1.77,5.96,2.3,11.8,0.365,1.97,1.97,11.4,1.9,4.93,0.362,3.47,1.96,14.2,1.75,4.4,4.11,0.615
COc1ccc(/C=C(\C)[N+](=O)[O-])cc1OC,5.56,19.3,1.34,2.94,1.86,3.94,1.81,3.46,1.78,3.8,1.98,3.83,2.04,> 100,1.79,3.22,1.82,3.87,> 100,2.17
CC(=O)O[C@@H]1C[C@@]2(C)[C@@H]3CC=C4[C@@H](C[C@H](O)C(=O)C4(C)C)[C@]3(C)C(=O)C[C@]2(C)[C@H]1[C@@](C)(O)C(=O)/C=C/C(C)(C)OC(C)=O,–,> 48.2,–,4.55,–,37.9,–,> 72.9,–,35.6,–,> 25.4,–,> 53.4,–,34.1,–,27.9,> 100,–
CCCCNc1nc(NC2OCC(OC(C)=O)C(OC(C)=O)C2OC(C)=O)c(N=O)c(=O)n1C (stereo unspecified),–,> 10,–,> 10,–,> 10,–,> 10,–,> 10,–,> 10,–,> 10,–,> 10,–,> 10,–,–
C1CSCCSCCCSCCSCCCSCCSCCCSCCSC1,–,> 100,–,> 100,–,> 100,–,> 100,–,> 100,–,> 100,–,> 100,–,> 100,–,–,> 100,–
